# Entries after “also recorded” stand apart in the source; their conditions may differ.
# Legend:
# Sprague Dawley rats = type: in vivo
# Method: Taxol™ commonly causes dose dependent peripheral neuropathies during cancer treatment. […] All of the Taxol™ treated animals developed peripheral neuropathies, characterized by ‘tip toe walking’. The extent of this neuropathy was analyzed by quantifying the refracted light captured by a video camera as the animals walked over a glass plate.
# Adult Sprague Dawley rats were treated with Taxol™ (IP, 9 mg/kg in Cremophor EL and ethanol) twice weekly for 3 weeks (J. Neuro-Oncology (1999) 41: 107-116). Compound was administered I hour prior to Taxol™ treatment (IP, 1, 5 and 10 mg/kg in hydroxypropyl-β-cyclodextrin). Taxol™ treated control animals were treated with saline solution at the same time of Compound treated animals. Non-treated control animals were treated with saline solution as above. Weight gain was measured every second day, starting at Day 1. Gait analysis was measured by quantifying the refracted light captured by a video camera as the animals walked over a glass plate, 2 days after the final Taxol™ treatment (Physiology and Behavior (1994), 55(4): 723-726; Med. Sci. Res. (1988) 16: 901-902). […] H/M wave recovery was analyzed using standard procedures 2 days after the final Taxol™ treatment (Muscle Nerve (1998) 21: 1405-1413; Annals of Neurology (1998) 43 (1): 46-55).
# Male Spraugue Dawley rats were treated with 50% HPDC vehicle (veh/veh), compound I dissolved in 50% HPDC at 1, 5, or 10 mg/kg (veh/1, veh/5, veh/10, respectively), or Taxol™ (9 mg/kg)+compound 1 dissolved in 50% HPDC at 1, 5, and 10 mg/kg (Tax/1, Tax/5, Tax/10) according to the dosing regime described in Example 160. Weight measurements were made ever other day.
# Two days after the completion of drug treatments animal walking gait was analyzed according to a) total imprint area, and b) total number of contact points.
# FIG. 6 illustrates the effect of Compound 1 on H-reflex amplitude, a measurement of H/M wave disturbance induced by Taxol™. Two days after the completion of drug treatments, the dorsal root ganglia and attached nerves were dissected bilaterally from L4 and L5 and their H/M wave conductance measured.
# [1] = tested on: human ovarian carcinoma cells (OV2008); test: Co-treatment of OV2008 cell line with Taxol and compound 1; type: cell-based; conditions: Taxol™ (50 nM) + compound at 5, 10, 20 uM; Taxol™ and/or cisplatin
# Method: H460 and OV2008 cells were plated and incubated for 48 hours. Compound 1 and/or compound 1 and Taxol™ were added. Viability was determined after 24 hours, staining with MTT (Promega).
# FIG. 3 illustrates the co-treatment of H460 and OV 2008 cell lines with Taxol™ and compound 1. H460 lung carcinoma and OV2008 ovarian carcinoma cells were treated with Taxol™ (50 nM) and/or Taxol™ (50 nM)+compound 1 (noted as AEG 03482) at levels of 5, 10, and 20 uM.
# [2] = tested on: retinal ganglion (RG) neurons; test: Optical stroke model; type: in vivo, rat
# Text: Various diseases which result in loss of vision are related to increased inter-ocular pressure and ocular stroke or ischemia. Loss of the retinal ganglion (RG) occur during ischemic insult and in diseases such as diabetes and glaucoma. A model of inter-ocular ischemia involves an invasive increase in ocular pressure which results in the collapse of the central retinal artery. Retinal ischemia is confirmed by whitening of the iris and loss of red reflex. The inter-ocular pressure is normalized after 30 minutes. This procedure is performed on the right eye and the left eye serves as a control. Compound was given either by intra-vitrial injection or via SC injections at 10 mg/kg (see Example 162).
# The right eye of each rat was dilated fully using 1% tropacamide and 2% pheylephrine hydrochloride (Alcon Canada). A single drop of 0.5% proparacaine (Alcon) was used as a topical anesthetic. The anterior chamber of the right eye was cannulated with a 30-gauge needle connected to a saline reservoir and a manometer to monitor intraocular pressure. Intraocular pressure was raised to 110 mm Hg by raising the saline reservoir for 60 minutes. This increase in pressure collapses the central retinal artery. […] Optical function after 24 hrs, 28 hrs and 7 days was assessed using ERG measurements and histological staining of the RG layer.
# [3] = 5 mg/kg with Taxol™ (9 mg/kg), bi-weekly
compound,measurement,setting,value
"NS(=O)(=O)c1nn2cc(-c3ccccc3)nc2s1 [Compound 1, 6-Phenylimidazo[2,1-b]-1,3,4-thiadiazole-2-sulfonamide]",loss in foot pad contact,Sprague Dawley rats; [3],23%
same,weight gain as compared to control,Sprague Dawley rats; [3],normal weight gain
same,H/M wave disturbance induced by Taxol™ (H-reflex amplitude),Sprague Dawley rats; two days after completion of drug treatments,caused a reversal in H/M wave disturbance
same,Taxol™ induced gait disturbance,"Sprague Dawley rats; two days after completion of drug treatments, total imprint area, number of contact points",prevented Taxol™ induced gait disturbance
same,protection of OV2008 cells from Taxol™ induced apoptosis,[1],no protection; also recorded: did not protect
same,protection of RG population / ERG conductance after ocular stroke,"[2]; given post stroke, intravitreally then daily injections for 1 week",protects the RG population allowing for normal conductance
same,histology of the RG layer,[2]; intra-vitrial injection or SC,healthy RG layers
